Laboratory results reported in patent US10150774B2, “Compounds and methods” (INTRA-CELLULAR THERAPIES, INC., priority 2014, dated 2018).

Each compound was assayed on PDE1 (assay: Measurement of PDEIB inhibition in vitro using IMAP phosphodiesterase assay kit).
Format: biochemical, bovine or human
Source text: Example 10: Measurement of PDEIB Inhibition in Vitro Using IMAP Phosphodiesterase Assay Kit
Phosphodiesterase I B (PDEIB) is a calcium/calmodulin dependent phosphodiesterase enzyme that converts cyclic guanosine monophosphate (cGMP) to 5′-guanosine monophosphate (5′-GMP). PDEIB can also convert a modified cGMP substrate, such as the fluorescent molecule cGMP-fluorescein, to the corresponding GMP-fluorescein. The generation of GMP-fluorescein from cGMP-fluorescein can be quantitated, using, for example, the IMAP (Molecular Devices, Sunnyvale, Calif.) immobilized-metal affinity particle reagent.
Briefly, the IMAP reagent binds with high affinity to the free 5′-phosphate that is found in GMP-fluorescein and not in cGMP-fluorescein. The resulting GMP-fluorescein-IMAP complex is large relative to cGMP-5 fluorescein. Small fluorophores that are bound up in a large, slowly tumbling, complex can be distinguished from unbound fluorophores, because the photons emitted as they fluoresce retain the same polarity as the photons used to excite the fluorescence.
In the phosphodiesterase assay, cGMP-fluorescein, which cannot be bound to IMAP, and therefore retains little fluorescence polarization, is converted to GMPfluorescein, which, when bound to IMAP, yields a large increase in fluorescence polarization (mp). Inhibition of phosphodiesterase, therefore, is detected as a decrease in mp.
Materials: All chemicals are available from Sigma-Aldrich (St. Louis, Mo.) except for IMAP reagents (reaction buffer, binding buffer, FL-GMP and IMAP beads), which are available from Molecular Devices (Sunnyvale, Calif.).
Assay: The following phosphodiesterase enzymes may be used: 3′,5′-cyclic-nucleotide specific bovine brain phosphodiesterase (Sigma, St. Louis, Mo.) (predominantly PDEIB) and recombinant full length human PDE1 A and PDE1B (r-hPDE1 A and r-hPDE1B respectively) which may be produced e.g., in HEK or SF9 cells by one skilled in the art. The PDE1 enzyme is reconstituted with 50% glycerol to 2.5 U/mL. One unit of enzyme will hydrolyze 1.0 μmol of 3′,5′-cAMP to 5′-AMP per min at pH 7.5 at 30° C. […]
The FL-GMP conversion reaction is initiated by combining 4 parts enzyme and inhibitor mix with 1 part substrate solution ([…]) in a 384-well microtiter plate. […] The plate is incubated at room temperature for 1 hour to allow IMAP binding to proceed to completion, and then placed in an Envision multimode microplate reader (PerkinElmer, Shelton, Conn.) to measure the fluorescence polarization (mp).
A decrease in GMP concentration, measured as decreased mp, is indicative of inhibition of PDE activity.

Row | Compound | selectivity for PDE1
1 | CN1C(=O)c2c(nn(Cc3ccc(Cl)cc3)c2Nc2ccc(F)cc2)N2CC(C)(C)N=C12 [Example 9, 7,8-Dihydro-2-(4-chlorobenzyl)-3-(4-fluorophenylamino)-5,7,7-trimethyl-[2H]-imidazo-[1,2-a]pyrazolo[4,3-e]pyrimidin-4(5H)-one] | good selectivity
2 | CN1C(=O)c2c(nn(Cc3ccc(-c4ccccn4)cc3)c2Nc2ccc(F)cc2)N2CC(C)(C)N=C12 [Example 1, 7,8-Dihydro-2-(4-(pyridine-2-yl)benzyl)-3-(4-fluorophenylamino)-5,7,7-trimethyl-[2H]-imidazo-[1,2-a]pyrazolo[4,3-e]pyrimidin-4(5H)-one] | good selectivity
3 | CCCc1c2c(nn1Cc1ccc(-c3ccc(F)cn3)cc1)N1CC(C)(C)N=C1N(C)C2=O [Example 7, 7,8-Dihydro-2-(4-(5-fluoropyridin2-yl)benzyl)-3-propyl-5,7,7-trimethyl-[2H]-imidazo-[1,2-a]pyrazolo[4,3-e]pyrimidin-4(5H)-one] | good selectivity
4 | CCc1c2c(nn1Cc1ccc(-c3ccc(F)cn3)cc1)N1CC(C)(C)N=C1N(C)C2=O [Example 5, 7,8-Dihydro-2-(4-(5-fluoropyridin2-yl)benzyl)-3-ethyl-5,7,7-trimethyl-[2H]-imidazo-[1,2-a]pyrazolo[4,3-e]pyrimidin-4(5H)-one] | good selectivity
